T/C data for 13 molecules are collected here from PubChem BioAssay AID328 (DTP/NCI, 2004).

Where “and” joins values, the source holds several entries; their conditions need not be identical. Equal values may be shown once. Inconclusive results and toxic doses are left out.

In the assay the test system is BDF1 mice, P388 leukemia ip, median survival T/C. As to the kind of experiment: NCI In Vivo Anticancer Drug Screen. Data for tumor model P388 Leukemia (intraperitoneal) in B6D2F1 (BDF1) mice. As to conditions: endpoint: median survival time, higher = longer survival. The gist of the method: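 Each value expresses how treatment altered survival: treated-mouse outcome over vehicle-mouse outcome, both groups bearing the transplanted tumour.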

Setting [1] is: dose: 100.0 mg/kg/injection, schedule: Q01DX009 (ip), vehicle: saline with Tween-80.
The mark [2] stands for this setting: dose: 200.0 mg/kg/injection, schedule: Q01DX009 (ip), vehicle: saline with Tween-80.
Where [3] appears, read: dose: 400.0 mg/kg/injection, schedule: Q04DX003 (ip), vehicle: saline with Tween-80.
Where [4] appears, read: dose: 50.0 mg/kg/injection, schedule: Q01DX009 (ip), vehicle: saline with Tween-80.
[5] abbreviates: dose: 12.5 mg/kg/injection, schedule: Q01DX009 (ip), vehicle: saline with Tween-80.

Turning to `Cc1c(O)ccc(=O)n1O`, the T/C was 108 % of control (dose: 20.0 mg/kg/injection, schedule: Q01DX009 (ip), vehicle: Klucel (hydroxypropylcellulose) (HPC)); 95 % of control (dose: 20.0 mg/kg/injection, schedule: Q01DX009 (ip), vehicle: saline); 121 % of control (dose: 40.0 mg/kg/injection, schedule: Q01DX009 (ip), vehicle: Klucel (hydroxypropylcellulose) (HPC)); 117 % of control (dose: 40.0 mg/kg/injection, schedule: Q01DX009 (ip), vehicle: saline with Tween-80); 95 % of control (dose: 40.0 mg/kg/injection, schedule: Q01DX009 (ip), vehicle: saline); 110 % of control (dose: 80.0 mg/kg/injection, schedule: Q01DX009 (ip), vehicle: Klucel (hydroxypropylcellulose) (HPC)). The T/C runs as follows: under setting [1], 116 % of control; (dose: 100.0 mg/kg/injection, schedule: Q04DX003 (ip), vehicle: saline with Tween-80) 104 % of control; (dose: 160.0 mg/kg/injection, schedule: Q01DX009 (ip), vehicle: saline with Tween-80) 122 % of control; (dose: 160.0 mg/kg/injection, schedule: Q01DX009 (ip), vehicle: saline) 100 % of control; under setting [2], 108 % of control; (dose: 200.0 mg/kg/injection, schedule: Q04DX003 (ip), vehicle: saline with Tween-80) 100 % of control. Besides, the T/C under setting [3] was 90 % of control.

As for `CC1=C(O)/C(=C/C(C)CCC/C(C)=C/CC/C(C)=C/CCc2ccoc2)OC1=O` (centres undefined), the T/C by setting is: (dose: 0.31 mg/kg/injection, schedule: Q01DX009 (ip), vehicle: saline with Tween-80) 100 % of control; (dose: 0.62 mg/kg/injection, schedule: Q01DX009 (ip), vehicle: saline with Tween-80) 104 % of control; (dose: 2.5 mg/kg/injection, schedule: Q01DX009 (ip), vehicle: saline with Tween-80) 98 % of control; (dose: 5.0 mg/kg/injection, schedule: Q01DX009 (ip), vehicle: saline with Tween-80) 90 % of control.

Turning to `CCCCCC#CC1OC12CCCCC2` (centres undefined), the T/C reads like this: under setting [4], 124 % of control; under setting [1], 119 % of control; under setting [2], 102 % of control.

With `Cc1csc2ccccc12`, the T/C runs as follows: under setting [5], 111 % of control; (dose: 25.0 mg/kg/injection, schedule: Q01DX009 (ip), vehicle: saline with Tween-80) 102 % of control; under setting [4], 119 % of control.

Turning to `CS(=O)/C=C(\c1ccccc1)c1cccs1` (centres undefined), the T/C runs as follows: under setting [4], 96 % of control; under setting [1], 100 % of control.

Regarding `Cc1cc(Br)c2nsnc2c1[N+](=O)[O-]`, the T/C is 118 % of control (dose: 50.0 mg/kg/injection, schedule: Q01DX005 (ip), vehicle: saline with Tween-80) and 118 % of control (dose: 400.0 mg/kg/injection, schedule: Q01DX005 (ip), vehicle: saline with Tween-80).

Take `CC[CH2][Pb]([CH2]CC)([CH2]CC)[O]C(=O)C(Cl)(Cl)Cl`: the T/C is 122 % of control (dose: 3.12 mg/kg/injection, schedule: Q01DX009 (ip), vehicle: saline with Tween-80); 121 % of control (dose: 6.25 mg/kg/injection, schedule: Q01DX009 (ip), vehicle: saline with Tween-80); 108 % of control under setting [5].

As to `Cn1c(=O)c2[nH]c(CN(CCCl)CCCl)nc2n(C)c1=O`, the T/C was 100 % of control (dose: 0.88 mg/kg/injection, schedule: Q04DX003 (ip), vehicle: saline with Tween-80); 109 % of control (dose: 1.32 mg/kg/injection, schedule: Q04DX003 (ip), vehicle: saline with Tween-80); 119 % of control (dose: 2.0 mg/kg/injection, schedule: Q04DX003 (ip), vehicle: saline with Tween-80); 154 % of control (dose: 2.4 mg/kg/injection, schedule: Q01DX009 (ip), vehicle: saline with Tween-80); 160 % of control (dose: 3.7 mg/kg/injection, schedule: Q01DX009 (ip), vehicle: saline with Tween-80); 163 % of control and 178 % of control (dose: 5.56 mg/kg/injection, schedule: Q01DX009 (ip), vehicle: saline with Tween-80). The T/C by setting is: (dose: 8.33 mg/kg/injection, schedule: Q01DX009 (ip), vehicle: saline with Tween-80) 172 % of control; under setting [5], 201 % of control.

For the molecule `COc1cc(/C=N/NC(=O)c2ccncc2)cc(OC)c1OC`, the T/C reads like this: (dose: 100.0 mg/kg/injection, schedule: Q04DX003 (ip), vehicle: Klucel (hydroxypropylcellulose) (HPC)) 104 % of control; (dose: 200.0 mg/kg/injection, schedule: Q01DX009 (ip), vehicle: Klucel (hydroxypropylcellulose) (HPC)) 122 % of control; (dose: 200.0 mg/kg/injection, schedule: Q04DX003 (ip), vehicle: Klucel (hydroxypropylcellulose) (HPC)) 109 % of control; (dose: 400.0 mg/kg/injection, schedule: Q01DX009 (ip), vehicle: Klucel (hydroxypropylcellulose) (HPC)) 122 % of control; (dose: 400.0 mg/kg/injection, schedule: Q04DX003 (ip), vehicle: Klucel (hydroxypropylcellulose) (HPC)) 100 % of control.

Consider `[O-][n+]1onc2c(-c3ccccc3)nnc(-c3ccccc3)c21`, for which the T/C is 104 % of control (dose: 100.0 mg/kg/injection, schedule: Q04DX003 (ip), vehicle: saline sonified); 90 % of control (dose: 200.0 mg/kg/injection, schedule: Q04DX003 (ip), vehicle: saline sonified); 100 % of control (dose: 400.0 mg/kg/injection, schedule: Q04DX003 (ip), vehicle: saline sonified).

For `CCCN(CCC)CC(O)c1cc2c(Cl)cc(Cl)cc2c2cc(C(F)(F)F)ccc12` (centres undefined), the T/C was 100 % of control under setting [4], 100 % of control under setting [1] and 106 % of control under setting [2].

As to `COC1(OC)C2(Cl)CC(=O)C3CC(=O)C3C1(Cl)C(Cl)=C2Cl` (centres undefined), the T/C is, setting by setting: (dose: 100.0 mg/kg/injection, schedule: Q01DX001 (ip), vehicle: Klucel (hydroxypropylcellulose) (HPC)) 103 % of control; (dose: 200.0 mg/kg/injection, schedule: Q01DX001 (ip), vehicle: Klucel (hydroxypropylcellulose) (HPC)) 107 % of control; (dose: 400.0 mg/kg/injection, schedule: Q01DX001 (ip), vehicle: Klucel (hydroxypropylcellulose) (HPC)) 96 % of control.

As for `Nc1ccn(C2OC(COP(=O)(O)O)C(O)C2O)c(=O)n1` (centres undefined), the T/C is 113 % of control (dose: 4.2 mg/kg/injection, schedule: Q04DX003 (ip), vehicle: saline with Tween-80); 113 % of control (dose: 6.3 mg/kg/injection, schedule: Q04DX003 (ip), vehicle: saline with Tween-80); 150 % of control (dose: 9.6 mg/kg/injection, schedule: Q04DX003 (ip), vehicle: saline); 159 % of control (dose: 50.0 mg/kg/injection, schedule: Q04DX003 (ip), vehicle: saline); 172 % of control (dose: 75.0 mg/kg/injection, schedule: Q04DX003 (ip), vehicle: saline); 187 % of control under setting [1]. Also, the T/C runs as follows: (dose: 115.0 mg/kg/injection, schedule: Q04DX003 (ip), vehicle: saline with Tween-80) 172 % of control; (dose: 175.0 mg/kg/injection, schedule: Q04DX003 (ip), vehicle: saline with Tween-80) 168 % of control; under setting [2], 112 % of control; (dose: 264.0 mg/kg/injection, schedule: Q04DX003 (ip), vehicle: saline with Tween-80) 181 % of control; under setting [3], 154 % of control; (dose: 600.0 mg/kg/injection, schedule: Q04DX003 (ip), vehicle: saline with Tween-80) 177 % of control.
